Experiments:
Format in all cases: cell-based
Raji = assay: Cancer cell panel, cell viability (resazurin): Burkitt's Lymphoma, Raji; settings: 72 hours, labelled drug combined with Example 3
WM-115 = assay: Cancer cell panel, cell viability (resazurin): Melanoma, WM-115; settings: WM-115 (Melanoma), 72 hours; labelled drug combined with Example 3
ACHN = assay: Cancer cell panel, cell viability (resazurin): Renal, ACHN; settings: 72 hours, labelled drug combined with Example 3
DLD-1 = assay: Cancer cell panel, cell viability (resazurin): Colon, DLD-1; settings: DLD-1 (Colon), 72 hours; labelled drug combined with Example 3
A2780 = assay: Cancer cell panel, cell viability (resazurin): Ovarian, A2780; settings: 72 hours, labelled drug combined with Example 3
H2122 = assay: Cancer cell panel, cell viability (resazurin): NSCLC, H2122; settings: 72 hours, labelled drug combined with Example 3
H460 = assay: Cancer cell panel, cell viability (resazurin): NSCLC, H460; settings: 72 hours, labelled drug combined with Example 3
Ramos = assay: Cancer cell panel, cell viability (resazurin): Burkitt's Lymphoma, Ramos; settings: 72 hours, labelled drug combined with Example 3
LnCap = assay: Cancer cell panel, cell viability (resazurin): Prostate, LnCap; settings: 72 hours, labelled drug combined with Example 3
H1975 = assay: Cancer cell panel, cell viability (resazurin): NSCLC, H1975; settings: 72 hours, labelled drug combined with Example 3
RPMI8226 = assay: Cancer cell panel, cell viability (resazurin): multiple myeloma, RPMI8226; settings: 72 hours, labelled drug combined with Example 3
T47D = assay: Cancer cell panel, cell viability (resazurin): Breast, T47D; settings: 72 hours, labelled drug combined with Example 3
SK-MEL-24 = assay: Cancer cell panel, cell viability (resazurin): Melanoma, SK-MEL-24; settings: SK-MEL-24 (Melanoma), 72 hours; labelled drug combined with Example 3
Caki-1 = assay: Cancer cell panel, cell viability (resazurin): Renal, Caki-1; settings: Caki-1 (Renal), 72 hours; labelled drug combined with Example 3
EOL-1 = assay: Cancer cell panel, cell viability (resazurin): Leukemia, EOL-1; settings: EOL-1 (Leukemia), 72 hours; labelled drug combined with Example 3
MDA-MB-157 = assay: Cancer cell panel, cell viability (resazurin): Breast, MDA-MB-157; settings: MDA-MB-157 (Breast), 72 hours; labelled drug combined with Example 3
MOLT4 = assay: Cancer cell panel, cell viability (resazurin): Leukemia, MOLT4; settings: 72 hours, labelled drug combined with Example 3
Caov-3 = assay: Cancer cell panel, cell viability (resazurin): Ovarian, Caov-3; settings: Caov-3 (Ovarian), 72 hours; labelled drug combined with Example 3
MDA-MB-231 = assay: Cancer cell panel, cell viability (resazurin): Breast, MDA-MB-231; settings: MDA-MB-231 (Breast), 72 hours; labelled drug combined with Example 3
LoVo = assay: Cancer cell panel, cell viability (resazurin): Colon, LoVo; settings: 72 hours, labelled drug combined with Example 3
BT-474 = assay: Cancer cell panel, cell viability (resazurin): Breast, BT-474; settings: BT-474 (Breast), 72 hours; labelled drug combined with Example 3
U87MG = assay: Cancer cell panel, cell viability (resazurin): Glioblastoma, U87MG; settings: 72 hours, labelled drug combined with Example 3
HCT116 = assay: Cancer cell panel, cell viability (resazurin): Colon, HCT116; settings: 72 hours, labelled drug combined with Example 3
U266 = assay: Cancer cell panel, cell viability (resazurin): multiple myeloma, U266; settings: 72 hours, labelled drug combined with Example 3
MDA-MB-453 = assay: Cancer cell panel, cell viability (resazurin): Breast, MDA-MB-453; settings: MDA-MB-453 (Breast), 72 hours; labelled drug combined with Example 3
HL60 = assay: Cancer cell panel, cell viability (resazurin): Leukemia, HL60; settings: 72 hours, labelled drug combined with Example 3
H23 = assay: Cancer cell panel, cell viability (resazurin): NSCLC, H23; settings: 72 hours, labelled drug combined with Example 3
786-O = assay: Cancer cell panel, cell viability (resazurin): Renal, 786-O; settings: 786-O (Renal), 72 hours; labelled drug combined with Example 3
MeWO = assay: Cancer cell panel, cell viability (resazurin): Melanoma, MeWO; settings: 72 hours, labelled drug combined with Example 3

For `O=c1[nH]cc(F)c(=O)[nH]1` [Example 5FU, 5-FU], the “synergy, additivity or antagonism of the combination of Example 3 with the anti-cancer drug” value (shortened to “synergy, additivity or antagonism”) (Raji) was “+ (Additive relative to each agent alone (CI = 0.9-1 by Bliss Independence Model and <0.9 by Highest Single Agent Model))”, the “synergy, additivity or antagonism” value (WM-115) was “+ (Additive relative to each agent alone (CI = 0.9-1 by Bliss Independence Model and <0.9 by Highest Single Agent Model))” and the “synergy, additivity or antagonism” value (ACHN) was “+ (Additive relative to each agent alone (CI = 0.9-1 by Bliss Independence Model and <0.9 by Highest Single Agent Model))”. For the same molecule, the “synergy, additivity or antagonism” value (DLD-1) was “+ (Additive relative to each agent alone (CI = 0.9-1 by Bliss Independence Model and <0.9 by Highest Single Agent Model))”, the “synergy, additivity or antagonism” value (A2780) was “+ + (Slight synergy relative to each agent alone (CI = 0.75-0.9 by Bliss Independence Model))” and the “synergy, additivity or antagonism” value (H2122) was “+ (Additive relative to each agent alone (CI = 0.9-1 by Bliss Independence Model and <0.9 by Highest Single Agent Model))”. The “synergy, additivity or antagonism” value (H460) was “+ + + (Synergy relative to each agent alone (CI = 0.4-0.74 by Bliss Independence Model))”, the “synergy, additivity or antagonism” value (Ramos) was “+ + (Slight synergy relative to each agent alone (CI = 0.75-0.9 by Bliss Independence Model))” and the “synergy, additivity or antagonism” value (LnCap) was “+ (Additive relative to each agent alone (CI = 0.9-1 by Bliss Independence Model and <0.9 by Highest Single Agent Model))”. The “synergy, additivity or antagonism” value (H1975) was “− − (Antagonistic relative to each agent alone (CI = 1.2-1.49 by Highest Single Agent Model))”, the “synergy, additivity or antagonism” value (RPMI8226) was “+ (Additive relative to each agent alone (CI = 0.9-1 by Bliss Independence Model and <0.9 by Highest Single Agent Model))” and the “synergy, additivity or antagonism” value (T47D) was “+ (Additive relative to each agent alone (CI = 0.9-1 by Bliss Independence Model and <0.9 by Highest Single Agent Model))”. For the same molecule, the “synergy, additivity or antagonism” value (SK-MEL-24) was “+ (Additive relative to each agent alone (CI = 0.9-1 by Bliss Independence Model and <0.9 by Highest Single Agent Model))”, the “synergy, additivity or antagonism” value (Caki-1) was “+ (Additive relative to each agent alone (CI = 0.9-1 by Bliss Independence Model and <0.9 by Highest Single Agent Model))” and the “synergy, additivity or antagonism” value (EOL-1) was “+ (Additive relative to each agent alone (CI = 0.9-1 by Bliss Independence Model and <0.9 by Highest Single Agent Model))”. For the same molecule, the “synergy, additivity or antagonism” value (MDA-MB-157) was “+ + (Slight synergy relative to each agent alone (CI = 0.75-0.9 by Bliss Independence Model))”, the “synergy, additivity or antagonism” value (MOLT4) was “+ + (Slight synergy relative to each agent alone (CI = 0.75-0.9 by Bliss Independence Model))” and the “synergy, additivity or antagonism” value (Caov-3) was “+ (Additive relative to each agent alone (CI = 0.9-1 by Bliss Independence Model and <0.9 by Highest Single Agent Model))”. The “synergy, additivity or antagonism” value (MDA-MB-231) was “+ (Additive relative to each agent alone (CI = 0.9-1 by Bliss Independence Model and <0.9 by Highest Single Agent Model))”, the “synergy, additivity or antagonism” value (LoVo) was “+ (Additive relative to each agent alone (CI = 0.9-1 by Bliss Independence Model and <0.9 by Highest Single Agent Model))” and the “synergy, additivity or antagonism” value (BT-474) was “+ (Additive relative to each agent alone (CI = 0.9-1 by Bliss Independence Model and <0.9 by Highest Single Agent Model))”. The “synergy, additivity or antagonism” value (U87MG) was “+ (Additive relative to each agent alone (CI = 0.9-1 by Bliss Independence Model and <0.9 by Highest Single Agent Model))”, the “synergy, additivity or antagonism” value (HCT116) was “+ + (Slight synergy relative to each agent alone (CI = 0.75-0.9 by Bliss Independence Model))” and the “synergy, additivity or antagonism” value (U266) was “+ (Additive relative to each agent alone (CI = 0.9-1 by Bliss Independence Model and <0.9 by Highest Single Agent Model))”. For the same molecule, the “synergy, additivity or antagonism” value (MDA-MB-453) was “+ (Additive relative to each agent alone (CI = 0.9-1 by Bliss Independence Model and <0.9 by Highest Single Agent Model))”, the “synergy, additivity or antagonism” value (HL60) was “+ (Additive relative to each agent alone (CI = 0.9-1 by Bliss Independence Model and <0.9 by Highest Single Agent Model))” and the “synergy, additivity or antagonism” value (H23) was “+ (Additive relative to each agent alone (CI = 0.9-1 by Bliss Independence Model and <0.9 by Highest Single Agent Model))”. The “synergy, additivity or antagonism” value (786-O) was “+ + + (Synergy relative to each agent alone (CI = 0.4-0.74 by Bliss Independence Model))” and the “synergy, additivity or antagonism” value (MeWO) was “− (Slightly antagonistic relative to each agent alone (CI = 1.1-1.2 by Highest Single Agent Model))”.

Reference: patent publication US10227344B2, “CK2 inhibitors, compositions and methods thereof” (Polaris Pharmaceuticals, Inc., priority 2016, dated 2019)
